Source: article PMC8943889, “Synthetic studies with the brevicidine and laterocidine lipopeptide antibiotics including analogues with enhanced properties and in vivo efficacy” (Chemical Science, 2022)
Converted amounts (≈) assume the structure as drawn. Where two headings read alike, the source gives them in different places. Positions of bridges follow the written chain, without caps; N, C: chain ends. Non-standard residues stand in square brackets, D forms with d. Residues, ends and D or L forms follow the SMILES beside them. ξ: configuration not given here. *: point of attachment. Hexanoyl(4ξ-Me) = CCC(C)CCC(=O)*; dOrn = NCCC[C@@H](N)C(=O)O; Orn = NCCC[C@H](N)C(=O)O

Tests used:
[1] = tested on: P. aeruginosa M-120; type: cell-based
Procedure: (§1) Minimum inhibitory concentrations (MICs) were determined by broth microdilution according to CLSI guidelines in triplicate. Blood agar plates were inoculated with glycerol stocks of E. coli ATCC 25922, E. coli MCR-1 (clinical isolate from Utrecht Medical Centre, NL), E. coli EQAS MCR-2 (clinical isolate from Wageningen University and Research, NL), K. pneumoniae ATCC 11228, K. pneumoniae ATCC 13883, K. pneumonia 2048 (clnical isolate from Vrije Universiteit Amsterdam Medical Centre, NL), K. pneumonia JS-123 (clinical isolate from Utrecht Medical […]
(§2) (clinical isolate from Rijksinstituut voor Volksgezondheid en Milieu, NL), A. baumannii MDR (clinical isolate from Vrije Universiteit Amsterdam Medical Centre, NL), P. aeruginosa ATCC 27853, P. aeruginosa PAO1, P. aeruginosa NRZ-03961 (Reference strain from Das Nationale Referenzzentrum für gramnegative Krankenhauserreger, DE), P. aeruginosa M-120 (clinical isolate from Leiden University Medical Centre, NL) and S. aureus USA300 (clinical isolate from Texas Children's Hospital, USA). E. coli 25922 MCR1 was grown on LB agar supplemented with kanamycin. The inoculated agar plates were then incubated for 16 h at 37°C . Individually grown colonies were subsequently used to inoculate 3 mL aliquots of TSB that were then incubated at 37°C with shaking at 220 rpm. In parallel, the lipopeptide antibiotics to be assessed were serially diluted with Mueller-Hinton broth (MHB) in polypropylene 96-well plates (50 µL in each well).
(§3) Once the OD600 of the bacterial suspensions reached 0.5, the bacteria were diluted with MHB (final concentration 2 × 10^5 CFU mL−1) and added to the microplates containing the test compounds (50 µL to each well, final volume: 100 µL). The well-plates were sealed with an adhesive membrane and after 16 h of incubation at 37°C with shaking at 220 rpm the wells were visually inspected for bacterial growth. MIC values reported are based on three technical replicates and defined as the lowest concentration of the compound that prevented visible growth of bacteria. […]

[2] = tested on: K. pneumoniae ATCC 13883; type: cell-based
Procedure: as §1, §2, §3

[3] = tested on: P. aeruginosa ATCC 27853; type: cell-based
Procedure: as §1, §2, §3

[4] = tested on: A. baumannii ATCC 17978; type: cell-based
Procedure: as §1, §2, §3

[5] = tested on: E. coli ATCC 25922 MCR-1; type: cell-based; settings: Ec ATCC 25922 MCR-1; broth microdilution (CLSI), MHB, 16 h 37 °C, three technical replicates
Procedure: as §1, §2, §3

[6] = tested on: A. baumannii ATCC 17961; type: cell-based
Procedure: as §1, §2, §3

[7] = tested on: E. coli ATCC 25922; type: cell-based
Procedure: as §1, §2, §3

[8] = tested on: K. pneumoniae JS-123; type: cell-based
Procedure: as §1, §2, §3

[9] = tested on: P. aeruginosa NRZ-03961; type: cell-based
Procedure: as §1, §2, §3

[10] = tested on: A. baumannii MDR; type: cell-based
Procedure: as §1, §2, §3

[11] = tested on: K. pneumoniae 2048; type: cell-based
Procedure: as §1, §2, §3

[12] = tested on: E. coli MCR-1 (clinical isolate); type: cell-based
Procedure: as §1, §2, §3

[13] = tested on: E. coli EQAS MCR-2; type: cell-based; settings: Ec EQAS MCR-2; broth microdilution (CLSI), MHB, 16 h 37 °C, three technical replicates
Procedure: as §1, §2, §3

[14] = tested on: A. baumannii 2018-006; type: cell-based
Procedure: as §1, §2, §3

[15] = tested on: K. pneumoniae ATCC 11228; type: cell-based
Procedure: as §1, §2, §3

[16] = tested on: P. aeruginosa PAO1; type: cell-based
Procedure: as §1, §2, §3

[17] = tested on: S. aureus USA300; type: cell-based
Procedure: as §1, §2, §3

[18] = tested on: E. coli ATCC 25922; experiment: Neutropenic mouse thigh infection efficacy study; type: in vivo, mice (ICR); settings: neutropenic mice, E. coli ATCC 25922 thigh infection, 20 mg kg^−1 SC q8h
Procedure: In vivo tolerability and efficacy studies
Ethical Issues. Animal experiments were performed under UK Home Office Licences P89653310 (tolerability and PK) and PA67E0BAA (thigh efficacy), with local ethical committee clearance.
Animal Strain. Mice used in these studies were supplied by Charles River (Margate UK) and were specific pathogen free. The strain of mice used was ICR (also known as CD1 Mice) which is a well characterized outbred murine strain. Mice (male) were 11-15 g on receipt and were allowed to acclimatise for at least 7 days.
Animal Housing. Mice were housed in sterilised individual ventilated cages exposing the mice at all times to HEPA filtered sterile air. Mice had free access to food and water and had aspen chip bedding (changed at least once weekly). The room temperature was 22°C +/ - 1°C, with a relative humidity of 60% and maximum background noise of 56 dB. Mice were exposed to 12 h light/dark […]
Test compounds. Compound 6 was dissolved in water for injection in which it formed a clear […]
colourless solution. […]
Compound 6 was administered via subcutaneous administration route at 3 8-h […]
The mice used in the tolerability study were naïve and were not immunosuppressed or infected.
Efficacy study. The in vivo efficacy of compound 6 was assessed in a mouse thigh abscess model where both thighs of each mouse were infected with E. coli ATCC 25922
Immunosuppression. […]
Endpoints. One h and 20.5 (planned 25) h post-infection, the clinical condition of all animals was assessed prior to humane euthanasia using pentobarbitone overdose, and the thighs were removed and weighed. Thigh samples were homogenized in 3mL ice cold sterile PBS; the homogenates were quantitatively cultured onto CLED agar and incubated at 37°C for 18 - 24 h before colonies were […]
Data analysis. The data from the culture burdens were analysed using appropriate non-parametric statistical models (Kruskal-Wallis using Conover-Inman to make all pairwise comparisons between groups) with StatsDirect software v. […]

CCC(C)CCC(=O)N[C@H](CC(N)=O)C(=O)N[C@H](Cc1ccc(O)cc1)C(=O)N[C@H](Cc1c[nH]c2ccccc12)C(=O)N[C@H](CCCN)C(=O)N[C@@H](CCCN)C(=O)NCC(=O)N[C@H](CCCN)C(=O)N[C@@H](Cc1c[nH]c2ccccc12)C(=O)N[C@H]1COC(=O)[C@H](CO)NC(=O)CNC(=O)[C@H]([C@@H](C)CC)NC1=O (stereo partly shown) [Ser9-Brev (3), Ser9-Brevicidine] ({Hexanoyl(4ξ-Me)}-[dN][dY][dW][dOrn][Orn]G[dOrn]WSIGS; ester 9-C)
MIC ([1]; M-120, 16 h): 2 µg/mL (≈ 1.33 µM)
MIC ([2]; ATCC 13883, 16 h): 2 µg/mL (≈ 1.33 µM)
MIC ([3]; ATCC 27853, 16 h): 1 µg/mL (≈ 0.664 µM)
MIC ([4]; ATCC 17978, 16 h): 2 µg/mL (≈ 1.33 µM)
MIC [5]: 4 µg/mL (≈ 2.66 µM)
MIC ([6]; ATCC 17961, 16 h): 0.5 to 1 µg/mL
MIC ([7]; ATCC 25922, 16 h): 4 µg/mL (≈ 2.66 µM)
MIC ([8]; JS-123, 16 h): 2 µg/mL (≈ 1.33 µM)
MIC ([9]; NRZ-03961, 16 h): 4 µg/mL (≈ 2.66 µM)
MIC ([10]; MDR, 16 h): 1 to 2 µg/mL
MIC ([11]; 2048, 16 h): 4 µg/mL (≈ 2.66 µM)
MIC ([12]; MCR-1 (clinical isolate, 16 h)): 2 µg/mL (≈ 1.33 µM)
MIC [13]: 4 to 8 µg/mL
MIC ([14]; 2018-006, 16 h): 2 µg/mL (≈ 1.33 µM)
MIC ([15]; ATCC 11228, 16 h): 2 µg/mL (≈ 1.33 µM)
MIC ([16]; PAO1, 16 h): 2 to 4 µg/mL
MIC ([17]; USA300, 16 h): >64 µg/mL

polymyxin B [PolyB, reference compound]
antibacterial effect in thigh infection, compared with Dap9-Lat (6) at 40 mg kg^−1 [18]: comparable
MIC ([1]; Pa M-120, broth microdilution (CLSI), MHB, 16 h 37 °C, three technical replicates): <0.25 µg/mL
MIC ([2]; Kp ATCC 13883, broth microdilution (CLSI), MHB, 16 h 37 °C, three technical replicates): 0.25 µg/mL
MIC ([3]; Pa ATCC 27853, broth microdilution (CLSI), MHB, 16 h 37 °C, three technical replicates): <0.25 µg/mL
MIC ([4]; Ab ATCC 17978, broth microdilution (CLSI), MHB, 16 h 37 °C, three technical replicates): <0.25 µg/mL
MIC ([6]; Ab ATCC 17961, broth microdilution (CLSI), MHB, 16 h 37 °C, three technical replicates): <0.25 µg/mL
MIC ([7]; Ec ATCC 25922, broth microdilution (CLSI), MHB, 2 × 10^5 CFU/mL, 16 h 37 °C, visual read-out, three technical replicates): 0.5 µg/mL
MIC ([8]; Kp JS-123, broth microdilution (CLSI), MHB, 16 h 37 °C, three technical replicates): <0.25 µg/mL
MIC ([9]; Pa NRZ-03961, broth microdilution (CLSI), MHB, 16 h 37 °C, three technical replicates): 0.25 to 0.5 µg/mL
MIC ([10]; Ab MDR, broth microdilution (CLSI), MHB, 16 h 37 °C, three technical replicates): <0.25 µg/mL
MIC ([11]; Kp 2048, broth microdilution (CLSI), MHB, 16 h 37 °C, three technical replicates): 0.5 to 1 µg/mL
MIC ([12]; Ec MCR-1, broth microdilution (CLSI), MHB, 16 h 37 °C, three technical replicates): 2 to 4 µg/mL
MIC [13]: 4 µg/mL
MIC ([14]; Ab 2018-006, broth microdilution (CLSI), MHB, 16 h 37 °C, three technical replicates): <0.25 µg/mL
MIC ([15]; Kp ATCC 11228, broth microdilution (CLSI), MHB, 16 h 37 °C, three technical replicates): <0.25 µg/mL
MIC ([16]; Pa PAO1, broth microdilution (CLSI), MHB, 16 h 37 °C, three technical replicates): 0.25 to 0.5 µg/mL
MIC ([17]; Sa USA300, broth microdilution (CLSI), MHB, 16 h 37 °C, three technical replicates): 64 µg/mL
